Results published in ChEMBL document CHEMBL2074487, “Effects of 12 Ca2+ antagonists on multidrug resistance, MDR1-mediated transport and MDR1 mRNA expression” (Eur J Pharm Sci, 2002).

What follows are molecules tested against ATP-dependent translocase ABCB1 (Homo sapiens, UniProt P08183) (assay: TP_TRANSPORTER: inhibition of Digoxin transepithelial transport (basal to apical) (Digoxin: 0.1 uM) in MDR1-expressing LLC-PK1 cells).
ATP-dependent translocase ABCB1, sequence (P08183 whole entry): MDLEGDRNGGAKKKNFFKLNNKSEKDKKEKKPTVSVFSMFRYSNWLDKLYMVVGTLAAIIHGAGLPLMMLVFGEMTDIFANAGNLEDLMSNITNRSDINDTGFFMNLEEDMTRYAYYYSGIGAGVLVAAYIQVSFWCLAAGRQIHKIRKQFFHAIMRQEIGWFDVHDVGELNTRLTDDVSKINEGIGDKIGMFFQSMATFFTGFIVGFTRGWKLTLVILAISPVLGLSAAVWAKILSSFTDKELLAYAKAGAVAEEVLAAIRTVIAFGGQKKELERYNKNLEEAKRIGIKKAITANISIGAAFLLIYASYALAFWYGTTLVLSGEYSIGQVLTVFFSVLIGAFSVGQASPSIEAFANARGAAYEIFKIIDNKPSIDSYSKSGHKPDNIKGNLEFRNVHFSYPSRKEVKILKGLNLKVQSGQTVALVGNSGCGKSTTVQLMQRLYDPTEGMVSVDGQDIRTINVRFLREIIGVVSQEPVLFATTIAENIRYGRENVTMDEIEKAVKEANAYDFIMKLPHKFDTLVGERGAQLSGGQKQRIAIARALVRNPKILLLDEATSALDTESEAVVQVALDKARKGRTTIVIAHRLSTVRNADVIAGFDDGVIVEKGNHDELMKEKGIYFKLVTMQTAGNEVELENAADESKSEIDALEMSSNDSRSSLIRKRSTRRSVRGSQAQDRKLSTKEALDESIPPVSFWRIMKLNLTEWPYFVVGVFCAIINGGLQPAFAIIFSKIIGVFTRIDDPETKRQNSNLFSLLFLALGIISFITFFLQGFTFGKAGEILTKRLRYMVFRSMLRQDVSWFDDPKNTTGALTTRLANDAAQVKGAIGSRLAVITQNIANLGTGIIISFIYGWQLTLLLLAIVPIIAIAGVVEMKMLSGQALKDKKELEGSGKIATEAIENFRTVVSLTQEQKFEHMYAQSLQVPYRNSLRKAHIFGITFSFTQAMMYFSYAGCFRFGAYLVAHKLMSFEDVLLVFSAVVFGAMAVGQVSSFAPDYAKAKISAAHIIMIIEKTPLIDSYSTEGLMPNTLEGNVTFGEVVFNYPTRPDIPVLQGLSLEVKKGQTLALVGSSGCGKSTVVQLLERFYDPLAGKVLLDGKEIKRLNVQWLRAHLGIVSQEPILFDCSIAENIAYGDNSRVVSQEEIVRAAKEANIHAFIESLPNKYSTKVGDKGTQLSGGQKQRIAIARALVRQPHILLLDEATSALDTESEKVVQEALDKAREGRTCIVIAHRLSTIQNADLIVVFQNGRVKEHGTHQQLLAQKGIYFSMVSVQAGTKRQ
Type: functional, cell-based
In the case of `COC(=O)C1=C(C)NC(C)=C(C(=O)OC)C1c1ccccc1[N+](=O)[O-]` [NIFEDIPINE], the IC50 is reported as 472 µM.
For `COC(=O)C1=C(C)NC(C)=C(C(=O)O[C@H]2CCN(Cc3ccccc3)C2)[C@H]1c1cccc([N+](=O)[O-])c1` [BARNIDIPINE], the IC50 was 12.6 µM.
Work on `CC1=C(C(=O)OCCN(Cc2ccccc2)c2ccccc2)C(c2cccc([N+](=O)[O-])c2)C(P2(=O)OCC(C)(C)CO2)=C(C)N1` (configuration not stated) [EFONIDIPINE] yielded an IC50 of 13 µM.
For `COC(=O)C1=C(C)NC(C)=C(C(=O)OCC(C)C)C1c1ccccc1[N+](=O)[O-]` (configuration not stated) [NISOLDIPINE], the IC50 was 44.1 µM.
For `CCOC(=O)C1=C(C)NC(C)=C(C(=O)OC)C1c1cccc([N+](=O)[O-])c1` (configuration not stated) [NITRENDIPINE], the IC50 was 68.2 µM.
In the case of `COC(=O)C1=C(C)NC(C)=C(C(=O)O[C@@H]2CCCN(Cc3ccccc3)C2)C1c1cccc([N+](=O)[O-])c1` (some centres not stated), the IC50 is reported as 4.96 µM.
`COC(=O)C1=C(C#N)NC(C)=C(C(=O)OC(C)C)C1c1cccc([N+](=O)[O-])c1` (configuration not stated) [NILVADIPINE] gave an IC50 of 18 µM.
